Where a name gives a salt, the structure may show the parent alone.

One assay concerns the target T1, human KDR enzyme (Homo sapiens, UniProt P35968).
T1 construct: The cytoplasmic domain of the human KDR enzyme was cloned in the form of a GST fusion; GST; made in house; host or cells: SF21 insect cells (baculovirus, pFastBac)
The assay can be described thus: in vitro test of phosphorylation of substrate with the enzyme KDR (scintillation technique). Format: biochemical. As to conditions: Table 1; unit inferred; read-out: KDR (concentration that inhibits 50% of the kinase activity). Here is the method:
Determination of the Activity of the Compounds—Experimental Protocols 1. KDR
The inhibitory effect of the compounds is determined in an in vitro test of phosphorylation of substrate with the enzyme KDR via a scintillation technique (96-well plate, NEN).
The cytoplasmic domain of the human KDR enzyme was cloned in the form of a GST fusion in the pFastBac baculovirus expression vector. The protein was expressed in the SF21 cells and purified to about 60% homogeneity.
The KDR kinase activity is measured in 20 mM MOPS, 10 mM MgCl2, 10 mM MnCl2, 1 mM DTT, 2.5 mM EGTA, 10 mM b-glycerophosphate, pH=7.2, in the presence of 10 mM MgCl2, 100 μm Na3VO4, 1 mM NaF. 10 μl of the compound are added to 70 μl of kinase buffer containing 100 ng of KDR enzyme at 4° C. The reaction is initiated by adding 20 μl of solution containing 2 μg of substrate (SH2-SH3 fragment of PLCγ expressed in the form of a GST fusion protein), 2 μCi of γ^33P[ATP] and 2 μm of cold ATP. After incubation for 1 hour at 37° C., the reaction is stopped by adding 1 volume (100 μl) of 200 mM EDTA. The incubation buffer is removed, and the wells are washed three times with 300 μl of PBS. The radioactivity in each well is measured using a Top Count NXT radioactivity counter (Packard).
The background noise is determined by measuring the radioactivity in four different wells containing radioactive ATP and the substrate alone.
A total activity control is measured in four different wells containing all the reagents (γ^33P—[ATP], KDR and substrate PLCγ), but in the absence of compound.
The inhibition of the KDR activity with the compound of the invention is expressed as a percentage of inhibition of the control activity determined in the absence of compound.
Compound SU5614 (Calbiochem) (1 μM) is included in each plate as an inhibition control.

For a further assay, the target named is T2, human Tie2 (Homo sapiens, UniProt Q02763).
T2 construct: amino acids of the intracellular domain 776-1124; made in house; host or cells: baculovirus expression (pFastBacGT)
Put plainly: test of phosphorylation of PLC with Tie2 (GST-Tie2). Format: biochemical. The note with it: Table 1; unit inferred; read-out: Tie2 (concentration that inhibits 50% of the kinase activity). Here is the method:
The coding sequence of human Tie2 corresponding to the amino acids of the intracellular domain 776-1124 was generated by PCR using the cDNA isolated from a human placenta as a model. This sequence was introduced into a pFastBacGT baculovirus expression vector in the form of a GST fusion protein.
The inhibitory effect of the molecules is determined in a test of phosphorylation of PLC with Tie2 in the presence of GST-Tie2 purified to about 80% homogeneity. The substrate is composed of the SH2-SH3 fragments of PLC expressed in the form of a GST fusion protein.
The kinase activity of Tie2 is measured in a MOPS 20 mM pH 7.2 buffer, containing 10 mM MgCl2, 10 mM MnCl2, 1 mM DTT, 10 mM of glycerophosphate. In a 96-well FlashPlate plate maintained on ice, a reaction mixture is deposited, composed of 70 μL of kinase buffer containing 100 ng of enzyme GST-Tie2 per well. Next, 10 μL of the test molecule diluted in DMSO to a maximum concentration of 10% are added. For a given concentration, each measurement is performed four times. The reaction is initiated by adding 20 μl of solution containing 2 μg of GST-PLC, 2 μm of cold ATP and 1 μCi of δ^33P[ATP]. After incubation for one hour at 37° C., the reaction is stopped by adding 1 volume (100 μl) of 200 mM EDTA. After removal of the incubation buffer, the wells are washed three times with 300 μL of PBS. The radioactivity is measured on a MicroBeta 1450 Wallac.
The inhibition of the Tie2 activity is calculated and expressed as a percentage of inhibition relative to the control activity determined in the absence of compound.

T1 sequence (P35968 786-1356 limits assumed): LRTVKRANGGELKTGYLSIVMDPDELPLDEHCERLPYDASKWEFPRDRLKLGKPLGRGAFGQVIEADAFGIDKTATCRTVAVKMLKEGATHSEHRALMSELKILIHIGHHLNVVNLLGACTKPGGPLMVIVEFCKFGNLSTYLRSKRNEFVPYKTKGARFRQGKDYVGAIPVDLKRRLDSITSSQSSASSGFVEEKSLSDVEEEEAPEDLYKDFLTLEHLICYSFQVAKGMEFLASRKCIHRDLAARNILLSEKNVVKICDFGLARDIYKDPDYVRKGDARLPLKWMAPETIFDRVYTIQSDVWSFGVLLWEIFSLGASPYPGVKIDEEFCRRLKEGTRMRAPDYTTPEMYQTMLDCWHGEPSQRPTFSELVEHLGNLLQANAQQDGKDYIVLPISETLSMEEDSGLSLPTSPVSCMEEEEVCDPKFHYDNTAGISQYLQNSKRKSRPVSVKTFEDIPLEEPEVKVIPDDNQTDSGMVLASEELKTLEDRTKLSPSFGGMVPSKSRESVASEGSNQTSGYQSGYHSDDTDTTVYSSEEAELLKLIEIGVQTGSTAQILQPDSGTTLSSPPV
T2 sequence (Q02763 776-1124): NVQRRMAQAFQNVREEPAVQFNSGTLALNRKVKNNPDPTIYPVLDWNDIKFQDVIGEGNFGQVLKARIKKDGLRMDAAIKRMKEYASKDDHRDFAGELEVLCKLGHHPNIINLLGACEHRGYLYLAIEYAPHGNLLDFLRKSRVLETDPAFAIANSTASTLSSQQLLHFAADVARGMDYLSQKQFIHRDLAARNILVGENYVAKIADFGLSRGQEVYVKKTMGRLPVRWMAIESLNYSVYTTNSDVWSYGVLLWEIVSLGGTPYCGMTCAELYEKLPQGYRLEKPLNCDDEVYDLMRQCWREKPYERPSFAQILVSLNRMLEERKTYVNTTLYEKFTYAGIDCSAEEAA

In the case of `NC(=O)c1n[nH]cc1NCc1cccc(NC(=O)Nc2cc(C(F)(F)F)ccc2F)c1` [Example 2a, 4-{[3-({[2-fluoro-5-(trifluoromethyl)phenyl]carbamoyl}amino)benzyl]-amino}-1H-pyrazole-3-carboxamide trifluoroacetate], the results for the IC50 at human KDR enzyme and on human Tie2 were 8 nM and 20 nM, respectively.
On the same counts, the results for `NC(=O)c1n[nH]cc1NCc1cccc(NC(=O)Nc2cc(F)cc(C(F)(F)F)c2)c1` [Example 7, 4-{[3-({[3-fluoro-5-(trifluoromethyl)phenyl]carbamoyl}amino)benzyl]-amino}-1H-pyrazole-3-carboxamide trifluoroacetate] are 4.5 nM and 72.7 nM.
The corresponding values for `COC(=O)c1cccc(NC(=O)Nc2cccc(CNc3c[nH]nc3C(N)=O)c2)c1` [Example 9, Methyl 3-{[(3-{[(3-carbamoyl-1H-pyrazol-4-yl)-amino]methyl}phenyl)-carbamoyl]amino}benzoate trifluoroacetate] are 21.8 nM and 4510 nM.
The corresponding values for `COc1cc(NC(=O)Nc2cccc(CNc3c[nH]nc3C(N)=O)c2)cc(OC)c1` [Example 13, 4-[(3-{[(3,5-dimethoxyphenyl)carbamoyl]amino}benzyl)amino]-1H-pyrazole-3-carboxamide trifluoroacetate] are 11.8 nM and 1460 nM.
On to `COC(=O)c1n[nH]cc1NCc1cccc(NC(=O)Nc2cc(C(F)(F)F)ccc2F)c1` [Example 32, Methyl 4-{[3-({[2-fluoro-5-(trifluoromethyl)phenyl]carbamoyl}amino)-benzyl]amino}-1H-pyrazole-3-carboxylate trifluoroacetate], for which the IC50 at human KDR enzyme turned out to be 64.1 nM; at human Tie2, 1000 nM.

The values above are taken from patent publication US8420824B2, “Substituted pyrazoles, compositions containing these, method of production and use” (Sanofi, priority 2006, dated 2013).
